Measured values from PubChem BioAssay (NCI).
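Assay format: 96-well plates, 48-hour exposure. GI50: concentration for 50% inhibition of growth. The concentration for full growth arrest is given as TGI.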

How the values were obtained:
Assay in all cases: growth of human tumour cells (NCI), 48 h
OVCAR-5 ovarian = system: OVCAR-5 ovarian
MOLT-4 leukemia = system: MOLT-4 leukemia
U251 CNS = system: U251 CNS
SK-OV-3 ovarian = system: SK-OV-3 ovarian
A498 renal = system: A498 renal
SF-295 CNS = system: SF-295 CNS
K-562 leukemia = system: K-562 leukemia
MDA-MB-231 breast = system: MDA-MB-231 breast
RPMI-8226 leukemia = system: RPMI-8226 leukemia
NCI-H23 lung = system: NCI-H23 lung

SMILES	GI50 (OVCAR-5 ovarian) [µM]	TGI (OVCAR-5 ovarian) [µM]	GI50 (MOLT-4 leukemia) [µM]	TGI (MOLT-4 leukemia) [µM]	GI50 (U251 CNS) [µM]	TGI (U251 CNS) [µM]	GI50 (SK-OV-3 ovarian) [µM]	TGI (SK-OV-3 ovarian) [µM]	GI50 (A498 renal) [µM]	TGI (A498 renal) [µM]	GI50 (SF-295 CNS) [µM]	TGI (SF-295 CNS) [µM]	GI50 (K-562 leukemia) [µM]	TGI (K-562 leukemia) [µM]	GI50 (MDA-MB-231 breast) [µM]	TGI (MDA-MB-231 breast) [µM]	GI50 (RPMI-8226 leukemia) [µM]	TGI (RPMI-8226 leukemia) [µM]	GI50 (NCI-H23 lung) [µM]	TGI (NCI-H23 lung) [µM]
O=C1/C(=C/C(Cl)=C/c2ccccc2)SC(=S)N1CCc1ccc(O)cc1	2.02	3.91	2.2	> 100	1.23	2.66	5.53	> 100	1.86	3.51	3.57	15.9	2.17	> 100	3.82	34.3	0.674	12.7	2.42	7.85
O=C1/C(=C/c2ccc(Cl)cc2)CN(C(=O)C(Cl)Cl)C/C1=C\c1ccc(Cl)cc1	0.287	0.799	0.273	> 28.1	0.052	0.186	0.531	1.74	0.211	0.771	0.214	0.683	0.0469	> 68.9	0.27	0.961	0.0302	0.169	0.242	0.887
COC(=O)C#Cc1ccc([N+](=O)[O-])cc1		4.34		2.88		3.86		19		22.6		10.9		12.9		4.08		1.48		3.68
COc1cnc2c(c1)C(=O)c1c-2n(CCCN2CCN(C)CC2)c(=O)c2cc(Cl)ccc12	3.56	13.3	0.345	5.33	7.24	49.6	10.1	36.4	0.959	9.61	0.674	20.5	1.19	3.51	10.7	23.2	13.9	45.1	6.27	24.6
